{
  "source": "patent US9226517B2",
  "about": "“Use of iminocyclitols as inhibitors of bacterial adherence to epithelial cells” (Taihua Shouyue (Hong Kong) International Co Limited, priority 2010, dated 2016)",
  "key": {"S. mutans": {"system": "S. mutans", "details": "Islam et al. 2008; compound isolated from M. alba; cited from earlier work"}, "[1]": {"system": "Lactobacillus acidophilus", "experiment": "Adhesion to mucus", "assay_type": "cell-based", "protocol": "(§1) • Adhesion to mucus. Protocol Day 1\n(§2) The bacteria was inoculated in the tube with 3 ml Luria medium. The bacteria were grown for 24 h at 37° C. The tube was incubated overnight (1 10^7-1 10^8 UCF/ml).\n(§3) The mucus (1 ml) is defrosted at room temperature. 100 ml of PBS medium was prepared. The defrosted mucus (1 ml) was centrifuged at 8000 rpm for 10 minutes. The mucus (1 ml) was transferred to an aliquot with sterile PBS (99 ml). Each well is inoculated with 2.5 ml from the mixture and the plate is kept in the fridge (4° C.) overnight.\n(§4) The plate was taken out from the fridge an the wash was made. 2 ml was extracted from each well. PBS (1 ml) was added, then was extracted, at the end there was 0.5 ml in the well.\n(§5) The tubes that were grown overnight, were diluted (1 10^7 UCF/ml).\n(§6) The final volume in each well was: PBS 0.5 ml plus bacterial suspension 0.5 ml plus D-fagomine 0.5 ml (or PBS in control case). It was prepared 2 plates (duplicated strains). Product concentration in the wells (10 ppm, 20 ppm, 40 pppm). Mannose concentration 0.05M (control well). The wells were inoculated and the plates were incubated at 37° C. for 90 minutes. After the 90 minutes, the supernatant of each well (10 μl) were observed under optical microscope. It was added 1 ml of each well in eppendorfs. The eppendords were kept on the fridge. Two wash were made with PBS. The wells washes of the same strain were recoleted in a falcon tube and they were kept at 4° C. PBS (1 ml) was added in each well and the plates were inoculated with 100 μl of each tubes at the adecuated dilutions.\n(§7) The plates were recounted"}, "Bifidobacterium": {"system": "Bifidobacterium", "experiment": "Adhesion to mucus", "assay_type": "cell-based", "protocol": "as §1, §2, §3, §4, §5, §6, §7"}, "Escherichia coli [2]": {"system": "Escherichia coli", "experiment": "Bacterial agglutination assay", "assay_type": "cell-based", "details": "for agglutination relative to the corresponding positive control: positive control mannose 0.05M", "protocol": "(§8) Bacteria used in the assay were Escherichia coli, Salmonella tphimurium and Streptococcus mutans, from over night cultures. The bacteria were inoculated in the 100 ml flask with Luria medium. The bacteria were grown for 24 h at 37° C. After incubation, Agar Luria medium plates were inoculated. After 24 h suspensions of each strain were prepared in PBS medium (10^8 CFU/ml). Serial dilutions of the products to be tested, D-fagomine and D-fagomine tartrate (20 ppm, 200 ppm, 2000 ppm) were made. The dilutions were mixed with bacterial suspensions in a 1:1 ratio. After 90 min. at room temperature the suspensions were observed under optical microscope. They were compared with the control culture without any product added.\n(§9) Bacteria used in the assay were Escherichia coli, Salmonella tphimurium, Streptococcus mutans, Lactobacillus casei and Bifidobacterium sp., from over night cultures. The bacteria were inoculated in the 100 ml flask with Luria medium. The bacteria were grown for 24 h at 37° C. After incubation, Agar Luria medium plates were inoculated. After 24 h suspensions of each strain were prepared in PBS medium (10^8 CFU/ml). Serial dilutions of the product to be tested, D-fagomine tartrate (10 ppm, 20 ppm, 2000 ppm) were made. The dilutions were mixed with bacterial suspensions in a 1:1 ratio. After 90 min. at room temperature the suspensions were observed under optical microscope. They were compared with the control culture without any product added. The Escherichia coli and Salmonella tphimurium were compared with a positive control culture (mannose 0.05M)."}, "Salmonella tphimurium": {"system": "Salmonella tphimurium", "experiment": "Bacterial agglutination assay", "assay_type": "cell-based", "details": "for agglutination relative to the corresponding positive control: positive control mannose 0.05M", "protocol": "as §8, §9"}, "Streptococcus mutans [3]": {"system": "Streptococcus mutans", "experiment": "Bacterial agglutination assay", "assay_type": "cell-based", "protocol": "as §8, §9"}, "[4]": {"details": "Castillo et al., Organic Letter 2006; cited from earlier work"}, "Streptococcus mutans [5]": {"system": "Streptococcus mutans", "experiment": "Glass surface adherence assay", "assay_type": "cell-based", "details": "for G/MG (Glass/Mannose glass): vs mannose 0.05 M", "protocol": "Glass surface adherence assay was performed. The bacterium used in the assay was Streptococcus mutans from over night cultures (1 10^10 UCF/ml). The bacterium was grown for 18 h at 37° C. in PBS medium. The bacteria from the overnight culture (0.25 ml) were grown for 18 h at […] in a glass dish with the specific medium (0.5 ml). After the 18 h, 0.25 ml of D-fagomine (10 ppm, 20 ppm and 40 ppm) was added. In the control plate was added only PBS. After 90 min. the cells were transfered (0.5 ml) to a falcon tube, then were washed two times with PBS (0.5 ml each time). The wash of each bacteria was collected in a falcon tube and was kept at 4° C. The cells (100 μl) were seeded in the plates in TSA medium. The cells adhered were scrapped. In each well, it was added 0.5 ml of sterile PBS. The plaques with 100 μl were inoculated. The plaques were counted."}, "Escherichia coli [6]": {"system": "Escherichia coli", "experiment": "Adhesion to mucus (mucosal epitelial cells)", "assay_type": "cell-based", "details": "for Bacteria in supernatant: duplicates 1 and 2", "protocol": "(§10) • Mucus: mucosal epitelial cells • Adhesion to mucus. Protocol Day 1\n(§11) The bacteria was inoculated in the tube, with 3 ml Luria medium. The bacteria were grown for 24 h at 37° C. The tube was incubated overnight (1 10^8-1 10^9 UCF/ml).\n(§12) The mucus (1 ml) is defrosted at room temperature. PBS medium (100 ml) was prepared. The defrosted mucus was centrifuged at 8000 rpm for 10 minutes. The mucus (1 ml) was transferred to an aliquot with sterile PBS (99 ml) (1:100). Each well is inoculated with 2.5 ml from the mixture and the plate is kept in the fridge (4° C.) overnight.\n(§13) The plate was taken out from the fridge. 2 ml was extracted from each well. PBS (1 ml) was added, then was extracted, at the end there was 0.5 ml in the well.\n(§14) The tubes that were grown overnight were diluted (1 10^7 UCF/ml).\n(§15) The final volume in each well was: PBS 0.5 ml plus bacterial suspension 0.5 ml plus D-fagomine 0.5 ml (or PBS in control case).\n(§16) Two plates were prepared (duplicated strains). Product concentration in the wells (10 ppm, 20 ppm, 40 pppm). Mannose concentration 0.05M (control well).\n(§17) The wells were inoculated and the plates were incubated at 37° C. for 90 minutes.\n(§18) After the 90 minutes, the supernatant of each well (10 μl) were observed under optical microscope.\n(§19) It was added 1 ml of each well in eppendorfs. The eppendords were kept on the fridge. Two wash were made with PBS. The wells washed of the same strain were recoleted in a falcon tube and they were kept at 4° C. PBS (1 ml) was added in each well and the plates were inoculated with 100 μl of each tubes at the adecuated dilutions.\nas §7"}, "Salmonella": {"system": "Salmonella", "experiment": "Adhesion to mucus (mucosal epitelial cells)", "assay_type": "cell-based", "protocol": "as §10, §11, §12, §13, §14, §15, §16, §17, §18, §19, §7"}, "Lactobacillus casei": {"system": "Lactobacillus casei", "experiment": "Bacterial agglutination assay", "assay_type": "cell-based", "details": "Example 2; 90 min room temperature", "protocol": "as §9"}, "Bifidobacterium sp.": {"system": "Bifidobacterium sp.", "experiment": "Bacterial agglutination assay", "assay_type": "cell-based", "details": "Example 2; 90 min room temperature", "protocol": "as §9"}, "[7]": {"details": "Example 1, 20 ppm, 200 ppm and 2000 ppm, 90 min room temperature, vs control culture"}, "[8]": {"details": "independently of the D-fagomine concentration (10, 20, 40 ppm)"}, "[9]": {"details": "D-fagomine 40 ppm, duplicates 1 and 2"}, "[10]": {"details": "Example 2, 20 ppm and 200 ppm, 90 min room temperature"}},
  "note": "Several values for one entry are separate records, joined by “and”; a condition that tells them apart may be missing. Identical values can stand only once.",
  "data": [
    {"smiles": "OC[C@H]1NC[C@H](O)[C@@H](O)[C@@H]1O", "note": "[1-deoxynojirimycin]", "values": [
      {"measurement": "anti-microbial activity against S. mutans", "setting": "S. mutans", "value": "anti-microbial activity"}
    ]},
    {"smiles": "OC[C@H]1NCC[C@@H](O)[C@@H]1O", "note": "[D-fagomine, (2R, 3R, 4R)-2-hydroxymethylpiperidine-3,4-diol]", "values": [
      {"measurement": "M/Manose M", "setting": "[1]; D-fagomine 10 ppm", "value": 1.31},
      {"measurement": "Product M/Control M", "setting": "[1]; D-fagomine 10 ppm", "value": 5.58},
      {"measurement": "M/Manose M", "setting": "[1]; D-fagomine 20 ppm", "value": 1.31},
      {"measurement": "Product M/Control M", "setting": "[1]; D-fagomine 20 ppm", "value": 5.58},
      {"measurement": "Product M/Control M", "setting": "[1]; D-fagomine 40 ppm", "value": 3.94},
      {"measurement": "Product M/Control M", "setting": "Bifidobacterium; D-fagomine 20 ppm", "value": 1.14},
      {"measurement": "Product M/Control M", "setting": "Bifidobacterium; D-fagomine 40 ppm", "value": 3.50},
      {"measurement": "agglutination of the cells (optical microscope)", "setting": "Escherichia coli [2]; [7]", "value": "agglutinated"},
      {"measurement": "agglutination of the cells (optical microscope)", "setting": "Salmonella tphimurium; [7]", "value": "agglutinated"},
      {"measurement": "agglutination of the cells (optical microscope)", "setting": "Streptococcus mutans [3]; [7]", "value": "agglutinated"},
      {"measurement": "antimicrobial activity", "setting": "[4]", "value": "do not show antimicrobial activity"},
      {"measurement": "antiadherence activity in respect of the control", "setting": "Streptococcus mutans [5]; 10 ppm, 20 ppm and 40 ppm", "value": "has antiadherence activity"},
      {"measurement": "PG/CG (Product glass/Control glass without product)", "setting": "Streptococcus mutans [5]; D-fagomine 10 ppm", "value": 1.60},
      {"measurement": "G/MG (Glass/Mannose glass)", "setting": "Streptococcus mutans [5]; D-fagomine 10 ppm", "value": 1.60},
      {"measurement": "G/MG (Glass/Mannose glass)", "setting": "Streptococcus mutans [5]; D-fagomine 20 ppm", "value": 1.35},
      {"measurement": "Bacteria in supernatant", "setting": "Escherichia coli [6]; D-fagomine 10 ppm", "value": "94.5% and 95.1%"},
      {"measurement": "Bacteria in supernatant", "setting": "Escherichia coli [6]; D-fagomine 20 ppm", "value": "96.3% and 99.0%"},
      {"measurement": "Bacteria in supernatant", "setting": "Escherichia coli [6]; D-fagomine 40 ppm", "value": "99.2% and 98.6%"},
      {"measurement": "agglutination of microorganisms with the mucus", "setting": "Escherichia coli [6]; [8]", "value": "not agglutinated with the mucus"},
      {"measurement": "Bacteria in supernatant", "setting": "Salmonella; D-fagomine 10 ppm, duplicates 1 and 2", "value": "78.4% and 91.8%"},
      {"measurement": "Bacteria in supernatant", "setting": "Salmonella; D-fagomine 20 ppm, duplicates 1 and 2", "value": "98.2% and 95.5%"},
      {"measurement": "Bacteria in supernatant", "setting": "Salmonella; [9]", "value": "98.2% and 84.1%"},
      {"measurement": "Supernatant/mucus", "setting": "Salmonella; [9]", "value": 5.27, "unit": "UCF/ml"},
      {"measurement": "agglutination of microorganisms with the mucus", "setting": "Salmonella; [8]", "value": "not agglutinated with the mucus"}
    ]},
    {"smiles": "O=C(O)C(O)C(O)C(=O)O.OC[C@H]1NCC[C@@H](O)[C@@H]1O", "note": "[D-fagomine tartrate]", "values": [
      {"measurement": "agglutination relative to the corresponding positive control", "setting": "Escherichia coli [2]; 20 ppm", "value": "about 60%"},
      {"measurement": "agglutination relative to the corresponding positive control", "setting": "Escherichia coli [2]; 200 ppm", "value": "about 70%"},
      {"measurement": "agglutination of the cells (optical microscope)", "setting": "Escherichia coli [2]; [7]", "value": "agglutinated"},
      {"measurement": "agglutination of the cells (optical microscope)", "setting": "Escherichia coli [2]; Example 2, 10 ppm", "value": "not at 10 ppm"},
      {"measurement": "agglutination of the cells (optical microscope)", "setting": "Escherichia coli [2]; [10]", "value": "agglutinated"},
      {"measurement": "agglutination relative to the corresponding positive control", "setting": "Salmonella tphimurium; 20 ppm", "value": "about 60%"},
      {"measurement": "agglutination relative to the corresponding positive control", "setting": "Salmonella tphimurium; 200 ppm", "value": "about 70%"},
      {"measurement": "agglutination of the cells (optical microscope)", "setting": "Salmonella tphimurium; [7]", "value": "agglutinated"},
      {"measurement": "agglutination of the cells (optical microscope)", "setting": "Salmonella tphimurium; Example 2, 10 ppm", "value": "not at 10 ppm"},
      {"measurement": "agglutination of the cells (optical microscope)", "setting": "Salmonella tphimurium; [10]", "value": "agglutinated"},
      {"measurement": "agglutination of the cells (optical microscope)", "setting": "Streptococcus mutans [3]; [7]", "value": "agglutinated"},
      {"measurement": "agglutination of the cells (optical microscope)", "setting": "Streptococcus mutans [3]; Example 2, 10 ppm", "value": "not at 10 ppm"},
      {"measurement": "agglutination of the cells (optical microscope)", "setting": "Streptococcus mutans [3]; [10]", "value": "agglutinated"},
      {"measurement": "agglutination of the cells (optical microscope)", "setting": "Lactobacillus casei", "value": "not agglutinated"},
      {"measurement": "agglutination of the cells (optical microscope)", "setting": "Bifidobacterium sp.", "value": "not agglutinated"}
    ]}
  ]
}
